Results: patent US20180265867A1, “NUCLEIC ACID MOLECULES WITH ENHANCED ACTIVITY” (priority 2015, published 2018)
d = 2'-deoxy (DNA); r = 2'-OH (RNA)

What was measured:
[1] = tested on: A2780 human ovarian cancer cells; assay: Cell viability (ApoTox-Glo Triplex Assay) in A2780 cells; format: cell-based; conditions: 10 nM to 1000 nM, 48 h (FIG. 15)
Procedure: Cell viability study of 5-FU and siRNA derivatives bearing 5FU molecules were performed using, ApoTox-Glo™ Triplex Assay kit following manufacturer's protocol. Briefly, A2780 human ovarian cancer cells were seeded in 384 well BD Facon black plates (1000 cells in 50 μL/well) using automated Biomek FX pipetting workstation and incubated at 37° C. for 24 h for cell attachment. Stock solution of 5FU, siRNA-5FU2 and siRNA 5FU5 was prepared in cell culture medium (DMEM) respectively. siRNA-5FU2 and siRNA 5FU5 corresponds to Stat3 siRNA bearing 2 or 5 molecules of 5FU at the 3′end of the sense strand. After 24 h, different volume of stock solution was added to each well using non-contact acoustic dispenser (Echo 555), to obtain a gradient concentration ranging from 10 nM to 1000 nM and incubated for additional 48 h at 37° C. After 48 h, 20 μl of medium was treated with 5 μl of cell viability assay reagent, containing both GF-AFC substrate and bis-AAF-R110 substrate and incubated for 30 min at 37° C. Fluorescence values were recorded at two wavelength sets: 400Ex/505Em (Viability) and 485Ex/520Em (Cytotoxicity) using Envision Multilabel Plate Reader and the cell viability were obtained as a percentage of the untreated control (100% cell viability). […] All the cell experiments were measured in triplicate.

Ctnnb1 (β-Catenin) = assay: Ctnnb1 expression in MC3T3-E1 cells by quantitative RT-PCR; format: cell-based, mouse
Procedure: (§1) MC3T3-E1 cells were cultured in α-MEM (Sigma-Aldrich, Haverhill, UK) medium containing 10% FBS, 1% L-Glutamine, and 1% antibiotics (PeSt) at 37° C. with 5% CO2. One day prior to the miRNA treatment, 35,000 cells were plated per each well of a 24-well plate. On the experiment day, cells were replaced with 2% heat inactivated-FBS containing α-MEM medium with 1% L-Glutamine, and 1% antibiotics (PeSt). miR-34a-CP (final concentration: 50 nM) was given to the each well. Mirvana scrambled miRNA mimic was used as a negative control.
After 24 hours of transfection, and incubation, RNA extraction was performed by using miRCURY RNA Isolation Kit—Cell and Plant (#300100) and protocol from Exiqon, Vedbæk, Denmark. RNA samples were treated with DNase for 30 minutes at 37 degrees, thereafter inactivated with a DNase inactivation solution (TUTRBO DNase AM2238 thermofisher). Thereafter, RNA concentrations were measured using NanoDrop ND-1000 from NanoDrop Technologies, Wilmington, Del.
The cDNA was made from the total RNA using High Capacity cDNA reverse transcription kit (Applied Biosystems, USA). Reactions were performed on a 96-well Bio-Rad Thermal Cycler PCR System at 37° C. for 60 minutes, and at 95° C. for 5 min respectively. Real-time PCR reactions were performed as follows: 10 μl of 2×TaqMan® Universal PCR Master Mix, no AmpErase® UNG (Applied Biosystems, USA), 9 μl 1:5 diluted cDNA, and 1 μl of TaqMan gene specific assay mix. Final volume of the reaction mix was 20 uL. Internal control gene beta-actin (ACTB) (Applied Biosystems, USA) was selected as control for normalization of TaqMan data. The qRT-PCR reaction comprised a non-template control of cDNA in order to rule out any non-specific reading. Taqman probes for Ctnnb1, Sox9, Actb, were obtained from Applied Biosystems. The qRT-PCR amplification was carried out using the Bio-Rad qRT-PCR Thermocycler.
In order to achieve the transfection reagent free delivery of therapeutically potential microRNAs, we tested miR-34a and compared with miR-34a-CP. Since microRNAs unlike siRNAs have multiple targets in the cell, and there is a necessity to reduce the off-target and undesirable effects if any, we have also designed siRNA model siR-34a-CP as stated above. We have used mouse preosteoblast cell line MC3T3-E1 obtained from calvarial bone for the in-vitro functional validation of cell-penetrating molecules. On the day before transfection experiment, 35000 MC3T3-E1 cells were cultured per each well of the 24-well culture plate in alpha-Minimum Essential Medium with 10% heat inactivated FBS, 1% L-Glutamine, 1% antibiotics (Pe/St). […] 5% CO2. Thereafter, RNA extraction, cDNA preparation, and quantitative real-time PCR was performed by using TaqMan procedure.

SOX9 = SOX9 expression in MC3T3-E1 cells by real-time PCR; format: cell-based, mouse; conditions: MC3T3-E1 cells (FIG. 13)
Procedure: as §1
After 24 hours of transfection, and incubation, RNA extraction was performed by using miRCURY RNA Isolation Kit—Cell and Plant (#300100) and protocol from Exiqon, Vedbæk, Denmark. […] Thereafter, RNA concentrations were measured using NanoDrop ND-1000 from NanoDrop Technologies, Wilmington, Del.
The cDNA was made from the total RNA using High Capacity cDNA reverse transcription kit (Applied Biosystems, USA). […] The qRT-PCR reaction comprised a non-template control of cDNA in order to rule out any non-specific reading. […]
Since overexpression of Ctnnb1 is indicative of osteogenic differentiation of cells, we determined the expression of transcription factor that could be activated. For this purpose, we measured the levels of […] marker SOX9 that is implicated in endochondral ossification.

`O=c1[nH]cc(F)c(=O)[nH]1` [5FU, 5-Fluorouracil] was tested, and the cytotoxicity [1] was “dose dependent cytotoxicity”.

“miR-34a-CP: Cell penetrating miR-34a, sense SEQ ID NO: 22 with dA5, antisense SEQ ID NO: 23 (sense CAAUCAGCAAGUAUACUGCCCUAAAAA; antisense UGGCAGUGUCUUAGCUGGUUGU; sense: sugars from the 5' end r22 d5, backbone not given here; antisense: RNA, backbone not given here)” was tested, and the Ctnnb1 expression (Ctnnb1 (β-Catenin); 50 nM, 24 h, alone without transfection reagent (FIG. 11)) was “up regulation of Ctnnb1”, the Ctnnb1 expression (Ctnnb1 (β-Catenin); without transfection reagent MaTra (FIG. 12)) was “up regulation of Ctnnb1” and the SOX9 levels (SOX9) was “upregulated”.
